Here are results for seven molecules from ChEMBL document CHEMBL1159273, “[Cytotoxicity of aspidospermane indole alkaloids with a modified tryptamine chain]” (J Nat Prod, 1995).

The experiment relates to L1210. The experiment can be described thus: Cytotoxicity against mouse L1210 cells after 48 hrs by MTT method. Format: functional, cell-based. The conditions noted are these: L1210, 48 h.
In turn, `CC[C@]12CCC[N+]3([O-])C[C@@H](Br)[C@]4(C(=Nc5ccccc54)[C@@](Cl)(C(=O)OC)C1)[C@H]23` (some centres not stated) returned an IC50 of 14.1 µM.
The molecule `CC[C@]12CCC[N+]3([O-])CC[C@]4(C(=Nc5ccccc54)[C@@](Cl)(C(=O)OC)C1)[C@H]23` (some centres not stated) returned an IC50 of 27.4 µM.
On to `COc1cccc2c1C(=O)c1c(O)c3c(c(O)c1C2=O)C[C@@](O)(C(=O)CO)C[C@@H]3O[C@H]1C[C@H](N)[C@H](O)[C@H](C)O1` [DOXORUBICIN], for which the IC50 was found to be 0.03 µM.
In the case of `CC[C@]12CCCN3C[C@@H](Br)[C@@]4(c5ccccc5N[C@H]4[C@@](Cl)(C(=O)OC)C1)[C@@H]32` it was 46.8 µM.
The figure for `CC[C@]12CCCN3C[C@@H](Br)[C@@]4(c5ccccc5N5[C@H]4[C@]5(C(=O)OC)C1)[C@@H]32` is 141 µM; for `CC[C@]12CCCN3[C@@H](OC)C[C@]4(C(=Nc5ccccc54)[C@@](Cl)(C(=O)OC)C1)[C@@H]32` it is 3.1 µM; for `CC[C@]12CCCN3CC[C@@]4(c5ccccc5N5[C@H]4[C@]5(C(=O)OC)C1)[C@@H]32` it is 156 µM.
